In PubChem BioAssay AID248 (DTP/NCI, 2004):
Several values for one entry are separate records, joined by “and”; a condition that tells them apart may be missing. Identical values can stand only once. Inconclusive results and toxic doses are left out. Cut-off read from the data, not from the text of the source: active = T/C of 150% or more; inactive = T/C below 125%.

Tested on: L1210 leukemia ip in BDF1 mice, survival T/C
Experiment: NCI In Vivo Anticancer Drug Screen. Data for tumor model L1210 Leukemia (intraperitoneal) in B6D2F1 (BDF1) mice
Settings: endpoint: mean survival time, higher = longer survival
Procedure, shortened: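 Survival endpoint. Drug-treated group vs vehicle group, expressed as T divided by C. Tumor passaged by transplantation.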

[1] = dose: 100.0 mg/kg/injection, schedule: Q01DX009 (ip), vehicle: saline
[2] = dose: 100.0 mg/kg/injection, schedule: Q04DX003 (ip), vehicle: saline
[3] = dose: 200.0 mg/kg/injection, schedule: Q01DX009 (ip), vehicle: saline
[4] = dose: 200.0 mg/kg/injection, schedule: Q04DX003 (ip), vehicle: saline
[5] = dose: 400.0 mg/kg/injection, schedule: Q04DX003 (ip), vehicle: saline
[6] = dose: 100.0 mg/kg/injection, schedule: Q01DX001 (ip), vehicle: saline
[7] = dose: 200.0 mg/kg/injection, schedule: Q01DX001 (ip), vehicle: saline
[8] = dose: 400.0 mg/kg/injection, schedule: Q01DX001 (ip), vehicle: saline
[9] = dose: 100.0 mg/kg/injection, schedule: Q01DX009 (ip), vehicle: Klucel (hydroxypropylcellulose) (HPC)
[10] = dose: 100.0 mg/kg/injection, schedule: Q04DX003 (ip), vehicle: Klucel (hydroxypropylcellulose) (HPC)
[11] = dose: 200.0 mg/kg/injection, schedule: Q01DX009 (ip), vehicle: Klucel (hydroxypropylcellulose) (HPC)
[12] = dose: 200.0 mg/kg/injection, schedule: Q04DX003 (ip), vehicle: Klucel (hydroxypropylcellulose) (HPC)
[13] = dose: 400.0 mg/kg/injection, schedule: Q04DX003 (ip), vehicle: Klucel (hydroxypropylcellulose) (HPC)
[14] = dose: 100.0 mg/kg/injection, schedule: Q01DX001 (ip), vehicle: carboxymethylcellulose (CMC)
[15] = dose: 200.0 mg/kg/injection, schedule: Q01DX001 (ip), vehicle: carboxymethylcellulose (CMC)
[16] = dose: 400.0 mg/kg/injection, schedule: Q01DX001 (ip), vehicle: carboxymethylcellulose (CMC)

Measured: T/C

C/C(=C/c1c(C)[nH]c(=O)[nH]c1=O)C(=O)O
inactive: [1] 92 % of control | [2] 98 % of control | [3] 95 % of control | [4] 104 % of control | [5] 106 % of control

CCOC(=O)c1cccc2c([N+](=O)[O-])cccc12
inactive: [6] 94 % of control | dose: 100.0 mg/kg/injection, schedule: Q01DX009 (ip), vehicle: acetone 96 % of control | [7] 98 % of control | dose: 200.0 mg/kg/injection, schedule: Q01DX009 (ip), vehicle: acetone 88 % of control | [8] 98 % of control | dose: 400.0 mg/kg/injection, schedule: Q01DX009 (ip), vehicle: acetone 97 % of control

O=C1C(=C(c2ccccc2)N2CCCCC2)C(=O)c2ccccc21
inactive: [6] 104 % of control | [7] 109 % of control | [8] 106 % of control

CC(C)(C)C1=CC(=C(Cl)Cl)C=C(C(C)(C)C)C1=O
inactive: dose: 100.0 mg/kg/injection, schedule: Q04DX003 (ip), vehicle: other 97 % of control | dose: 200.0 mg/kg/injection, schedule: Q04DX003 (ip), vehicle: other 98 % of control | dose: 400.0 mg/kg/injection, schedule: Q04DX003 (ip), vehicle: other 93 % of control

CS(=O)(=O)OC[C@@H]1C2C=CC(C2)[C@@H]1COS(C)(=O)=O
inactive: dose: 50.0 mg/kg/injection, schedule: Q01DX009 (ip), vehicle: Klucel (hydroxypropylcellulose) (HPC) 107 % of control | [9] 100 % of control | [10] 98 % of control | [11] 104 % of control | [12] 94 % of control | [13] 107 % of control

COc1cc2cc[n+]3c(C)c4cc5c(cc4cc3c2cc1OC)OCO5 (tested in a mixture with another compound)
inactive: dose: 2.5 mg/kg/injection, schedule: Q01DX009 (ip), vehicle: saline 109 % of control | dose: 5.0 mg/kg/injection, schedule: Q01DX009 (ip), vehicle: saline 103 % of control | dose: 50.0 mg/kg/injection, schedule: Q01DX009 (ip), vehicle: saline 97 % of control

CCOCCNC1=C(Cl)C(=O)c2ccccc2C1=O
inactive: dose: 100.0 mg/kg/injection, schedule: Q01DX001 (ip), vehicle: other 97 % of control | dose: 200.0 mg/kg/injection, schedule: Q01DX001 (ip), vehicle: other 93 % of control | dose: 400.0 mg/kg/injection, schedule: Q01DX001 (ip), vehicle: other 90 % of control

CCC(=O)C(c1ccccc1)(c1ccccc1)c1ccccc1
inactive: dose: 100.0 mg/kg/injection, schedule: Q04DX002 (ip), vehicle: other 95 % of control | dose: 200.0 mg/kg/injection, schedule: Q04DX002 (ip), vehicle: other 100 % of control

CCSc1ncnc2nc[nH]c12
inactive: dose: 75.0 mg/kg/injection, schedule: Q01DX001 (ip), vehicle: acetone 105 % of control | dose: 150.0 mg/kg/injection, schedule: Q01DX001 (ip), vehicle: acetone 105 % of control | dose: 300.0 mg/kg/injection, schedule: Q01DX001 (ip), vehicle: acetone 105 % of control

CCCOCCC(c1ccccc1)(c1ccccc1)c1ccccc1
inactive: dose: 12.5 mg/kg/injection, schedule: Q01DX009 (ip), vehicle: saline with Tween-80 98 % of control | dose: 25.0 mg/kg/injection, schedule: Q01DX009 (ip), vehicle: saline with Tween-80 98 % of control | dose: 50.0 mg/kg/injection, schedule: Q01DX009 (ip), vehicle: saline with Tween-80 95 % of control | dose: 200.0 mg/kg/injection, schedule: Q01DX009 (ip), vehicle: saline with Tween-80 87 % of control

F[Si](F)(c1ccccc1)c1ccccc1
inactive: dose: 75.0 mg/kg/injection, schedule: Q01DX001 (ip), vehicle: saline 105 % of control | dose: 150.0 mg/kg/injection, schedule: Q01DX001 (ip), vehicle: saline 100 % of control

CCOC(=O)COc1ccc(/C=C/c2ccnc3ccccc23)cc1
inactive: [9] 100 % of control | [11] 106 % of control | dose: 400.0 mg/kg/injection, schedule: Q01DX009 (ip), vehicle: Klucel (hydroxypropylcellulose) (HPC) 94 % of control

CC(C)C(/C=N/N=C(N)N)=N\N=C(N)N
inactive: dose: 15.0 mg/kg/injection, schedule: Q01DX Z (ip), vehicle: methylcellulose (MC) 94 % of control | dose: 30.0 mg/kg/injection, schedule: Q01DX Z (ip), vehicle: methylcellulose (MC) 105 % of control | dose: 60.0 mg/kg/injection, schedule: Q01DX Z (ip), vehicle: methylcellulose (MC) 94 % of control | dose: 120.0 mg/kg/injection, schedule: Q01DX Z (ip), vehicle: methylcellulose (MC) 96 % of control

Cn1cnnc1N
inactive: [2] 97 % of control | [4] 101 % of control | [5] 103 % of control

CCOC(=O)Nc1cc2c(nnn2C(c2ccccc2)c2ccccc2)c(N)n1
inactive: dose: 5.0 mg/kg/injection, schedule: Q01DX001 (ip), vehicle: other 112 % of control | dose: 10.0 mg/kg/injection, schedule: Q01DX001 (ip), vehicle: other 98 % of control | dose: 20.0 mg/kg/injection, schedule: Q01DX001 (ip), vehicle: other 93 % of control | dose: 40.0 mg/kg/injection, schedule: Q01DX001 (ip), vehicle: other 91 % of control | dose: 80.0 mg/kg/injection, schedule: Q01DX001 (ip), vehicle: other 86 % of control

O=C(C(=O)c1ccc([N+](=O)[O-])cc1)c1ccccc1
inactive: [10] 97 % of control | [12] 100 % of control | [13] 94 % of control

Cc1cc(=S)n(C)c2ccccc12
inactive: [14] 89 % of control | [15] 89 % of control | [16] 96 % of control

O=C(O)CC(CC(=O)O)c1cccc([N+](=O)[O-])c1
inactive: dose: 100.0 mg/kg/injection, schedule: Q01DX001 (ip), vehicle: acetone 96 % of control | dose: 200.0 mg/kg/injection, schedule: Q01DX001 (ip), vehicle: acetone 98 % of control | dose: 400.0 mg/kg/injection, schedule: Q01DX001 (ip), vehicle: acetone 98 % of control

CCOC(OCC)C(=O)C(C#N)c1ccc(C#N)cc1 (stereo unspecified)
inactive: dose: 3.12 mg/kg/injection, schedule: Q01DX009 (ip), vehicle: DMSO 90 % of control | dose: 6.25 mg/kg/injection, schedule: Q01DX009 (ip), vehicle: DMSO 88 % of control | dose: 12.5 mg/kg/injection, schedule: Q01DX009 (ip), vehicle: DMSO 92 % of control and 88 % of control

COc1ccc(C(=O)c2cc(Br)ccc2O)cc1
inactive: [14] 98 % of control | [15] 100 % of control | [16] 98 % of control

CN(C)NP(=O)(NN(C)C)N(C)C
inactive: [2] 100 % of control | [4] 100 % of control | [5] 94 % of control

Cc1nc(N)nc(N)c1CCCc1ccccc1
inactive: dose: 1.56 mg/kg/injection, schedule: Q01DX001 (ip), vehicle: saline with Tween-80 93 % of control | dose: 3.13 mg/kg/injection, schedule: Q01DX001 (ip), vehicle: saline with Tween-80 93 % of control | dose: 6.25 mg/kg/injection, schedule: Q01DX001 (ip), vehicle: saline with Tween-80 95 % of control and 97 % of control

COc1c2ccoc2nc2ccc3c(c12)C=CC(C)(C)O3
inactive: dose: 50.0 mg/kg/injection, schedule: Q01DX001 (ip), vehicle: carboxymethylcellulose (CMC) 98 % of control | [14] 104 % of control | [15] 104 % of control | [16] 98 % of control

COC(=O)c1cc(C)cc([N+](=O)[O-])c1C
inactive: dose: 50.0 mg/kg/injection, schedule: Q01DX001 (ip), vehicle: saline 91 % of control | [6] 111 % of control | [7] 100 % of control | [8] 102 % of control

COC(=O)C1=C2C(C(=O)OC)C(O)=C(C(=O)OC)C2C(C(=O)OC)C1=O (stereo unspecified)
inactive: [6] 97 % of control | [1] 100 % of control | [2] 107 % of control | [7] 105 % of control | [3] 97 % of control | [4] 104 % of control | [8] 103 % of control | dose: 400.0 mg/kg/injection, schedule: Q01DX009 (ip), vehicle: saline 95 % of control | [5] 104 % of control

CS(C)(=O)=C/C(=C\C(=O)c1ccccc1)c1ccccc1
inactive: dose: 25.0 mg/kg/injection, schedule: Q04DX003 (ip), vehicle: saline 100 % of control | dose: 50.0 mg/kg/injection, schedule: Q04DX003 (ip), vehicle: saline 103 % of control | [2] 97 % of control
